Laboratory results published in ChEMBL document CHEMBL1201862, “PubChem BioAssay data set” (2004).
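Method: 48-hour compound exposure of cells in 96-well plates, five concentrations, linear interpolation of endpoints. GI50: concentration for 50% inhibition of growth.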 The source made the active and inactive calls. Cut-off read from the data, not from the text of the source: active = GI50 up to about 1.1 µM and inactive = higher.

Legend:
Test in all cases: NCI anticancer screen, dose series, 48 h
Hs-578T = test system: Hs-578T
CCRF-CEM = test system: CCRF-CEM
SR = test system: SR
M14 = test system: M14
RXF 393 = test system: RXF 393
UACC-62 = test system: UACC-62
NCI-H460 = test system: NCI-H460
DU-145 = test system: DU-145
NCI-H522 = test system: NCI-H522
HCT-116 = test system: HCT-116
EKVX = test system: EKVX
786-0 = test system: 786-0
OVCAR-3 = test system: OVCAR-3
OVCAR-8 = test system: OVCAR-8
A498 = test system: A498
SF-268 = test system: SF-268
OVCAR-4 = test system: OVCAR-4
SK-OV-3 = test system: SK-OV-3
SK-MEL-2 = test system: SK-MEL-2
NCI-H226 = test system: NCI-H226

Row | SMILES | GI50 (Hs-578T) | GI50 (CCRF-CEM) | GI50 (SR) | GI50 (M14) | GI50 (RXF 393) | GI50 (UACC-62) | GI50 (NCI-H460) | GI50 (DU-145) | GI50 (NCI-H522) | GI50 (HCT-116) | GI50 (EKVX) | GI50 (786-0) | GI50 (OVCAR-3) | GI50 (OVCAR-8) | GI50 (A498) | GI50 (SF-268) | GI50 (OVCAR-4) | GI50 (SK-OV-3) | GI50 (SK-MEL-2) | GI50 (NCI-H226)
1 | CC(NC1=NCCO1)c1ccccc1Cl (stereo not given) | > 100 µM (inactive) | > 100 µM (inactive) | > 100 µM (inactive) | > 100 µM (inactive) | > 100 µM (inactive) | > 100 µM (inactive) | > 100 µM (inactive) | > 100 µM (inactive) | > 100 µM (inactive) | 60.4 µM (inactive) | > 100 µM (inactive) | > 100 µM (inactive) | > 100 µM (inactive) | > 100 µM (inactive) | > 100 µM (inactive) | > 100 µM (inactive) | > 100 µM (inactive) | > 100 µM (inactive) | > 100 µM (inactive) | 58.1 µM (inactive)
2 | CC(C)NC(=O)OCc1c(COC(=O)NC(C)C)c(-c2ccc[n+](COC(=O)Cc3ccccc3)c2)n2c1CCC2 | 48.1 µM (inactive) | 54.7 µM (inactive) | 3.15 µM (inactive) | 40.2 µM (inactive) | 23 µM (inactive) | 17 µM (inactive) | 19.8 µM (inactive) | 25.4 µM (inactive) | 19 µM (inactive) | 30.4 µM (inactive) | 85.5 µM (inactive) | 17.3 µM (inactive) | 41 µM (inactive) | 37.8 µM (inactive) | 22.5 µM (inactive) | 26.9 µM (inactive) | 25 µM (inactive) | 29.2 µM (inactive) | 28.1 µM (inactive) | 77.3 µM (inactive)
3 | Cc1ccc2c(O)cc(-c3ccc(C)s3)nc2n1 | 0.297 µM (active) | 0.276 µM (active) | 0.0893 µM (active) | 0.303 µM (active) | 0.656 µM (active) | 0.35 µM (active) | 0.456 µM (active) | 0.993 µM (active) | 0.219 µM (active) | 0.295 µM (active) | 2.95 µM (inactive) | 0.443 µM (active) | 0.34 µM (active) | 0.652 µM (active) | 0.762 µM (active) | 2.34 µM (inactive) | 12.7 µM (inactive) | 0.746 µM (active) | 59.3 µM (inactive) | 0.357 µM (active)
4 | CNc1ncnc2c1cnn2COCC(O)CO (stereo not given) | > 100 µM (inactive) | > 100 µM (inactive) | > 100 µM (inactive) | > 100 µM (inactive) | > 100 µM (inactive) | > 100 µM (inactive) | > 100 µM (inactive) | > 100 µM (inactive) | > 100 µM (inactive) | > 100 µM (inactive) | > 100 µM (inactive) | > 100 µM (inactive) | > 100 µM (inactive) | > 100 µM (inactive) | > 100 µM (inactive) | > 100 µM (inactive) | > 100 µM (inactive) | > 100 µM (inactive) | > 100 µM (inactive) | > 100 µM (inactive)
5 | CCO/C=N/NC(=O)CSc1nc2ccc(I)cc2c(=O)n1Cc1ccccc1 | 34.6 µM (inactive) | 23 µM (inactive) | 33.7 µM (inactive) | 70.3 µM (inactive) | 34.6 µM (inactive) | 43.9 µM (inactive) | 28.8 µM (inactive) | > 100 µM (inactive) | 3.04 µM (inactive) | 28.8 µM (inactive) | 22.9 µM (inactive) | 56 µM (inactive) | 60 µM (inactive) | 87.5 µM (inactive) | 84.5 µM (inactive) | 44.3 µM (inactive) | > 100 µM (inactive) | > 100 µM (inactive) | 21.7 µM (inactive) | 64.4 µM (inactive)
6 | CCCCCCCCOC(=O)C12Oc3ccc(-c4ccc5c(c4O)C(=O)C4=C(O)CC(C)C(O)C4(C(=O)OCCCCCCCC)O5)c(O)c3C(=O)C1=C(O)CC(C)C2O (stereo not given) | 11.6 µM (inactive) | 2.05 µM (inactive) | 4.26 µM (inactive) | 26.2 µM (inactive) | 2.7 µM (inactive) | 15.8 µM (inactive) | 4.66 µM (inactive) | 34.4 µM (inactive) | 8.36 µM (inactive) | 7.11 µM (inactive) | 28.5 µM (inactive) | 19.1 µM (inactive) | 24.2 µM (inactive) | 9.46 µM (inactive) | 23.5 µM (inactive) | 12.2 µM (inactive) | 19.6 µM (inactive) | 18.7 µM (inactive) | 7.87 µM (inactive) | 33.7 µM (inactive)
7 | C=C1CC[C@@]2(OC1)OC1C[C@H]3[C@@H]4CC=C5C[C@@H](O)CC(OC6OCC(OC(=O)[C@@H](O)[C@@H](C)CC)C(OC(C)=O)C6OC6OC(C)C(O)C(O)C6O)[C@]5(C)[C@H]4CC[C@]3(C)C1[C@@H]2C (stereo not given in full) | 3.4 µM (inactive) | 1.53 µM (inactive) | 2.07 µM (inactive) | 2.11 µM (inactive) | 1.93 µM (inactive) | 1.77 µM (inactive) | 1.72 µM (inactive) | 2.07 µM (inactive) | 1.76 µM (inactive) | 1.65 µM (inactive) | 2.34 µM (inactive) | 1.82 µM (inactive) | 1.85 µM (inactive) | 2.16 µM (inactive) | 1.81 µM (inactive) | 2.06 µM (inactive) | 2.81 µM (inactive) | 1.83 µM (inactive) | 1.57 µM (inactive) | 2.64 µM (inactive)
8 | FC(F)(F)c1nc2ccc(SSc3ccc4nc(C(F)(F)F)[nH]c4c3)cc2[nH]1 | > 10 µM (inactive) | > 10 µM (inactive) | 30.7 µM (inactive) | 94.2 µM (inactive) | > 10 µM (inactive) | 73.8 µM (inactive) | 24.5 µM (inactive) | > 10 µM (inactive) | 49 µM (inactive) | > 10 µM (inactive) | > 10 µM (inactive) | 50.5 µM (inactive) | 36.6 µM (inactive) | 92.3 µM (inactive) | > 10 µM (inactive) | > 10 µM (inactive) | 61.5 µM (inactive) | > 10 µM (inactive) | > 10 µM (inactive) | > 10 µM (inactive)
9 | CC(C)Cc1ccc(C(C)/C=C2\CCC(CN3CCCCC3)C2=O)cc1 (stereo not given) | 4.71 µM (inactive) | 1.5 µM (inactive) | 1.65 µM (inactive) | 6.1 µM (inactive) | 2.52 µM (inactive) | 10.5 µM (inactive) | 26.7 µM (inactive) | 16.2 µM (inactive) | 1.35 µM (inactive) | 3.87 µM (inactive) | 13.6 µM (inactive) | 1.85 µM (inactive) | 4.03 µM (inactive) | 5.18 µM (inactive) | 14.3 µM (inactive) | 3.66 µM (inactive) | 3.78 µM (inactive) | 20.5 µM (inactive) | 13.3 µM (inactive) | 14.7 µM (inactive)
10 | CCc1nc(N)nc(N)c1-c1ccc(Cl)c([N+](=O)[O-])c1 | 28.1 µM (inactive) | 0.0557 µM (active) | 0.0439 µM (active) | 0.0735 µM (active) | 10.8 µM (inactive) | 0.0573 µM (active) | < 0.028 µM (active) | 0.611 µM (active) | 0.719 µM (active) | 0.0224 µM (active) | 3.38 µM (inactive) | 0.0869 µM (active) | 8.05 µM (inactive) | 0.074 µM (active) | 2.49 µM (inactive) | 0.239 µM (active) | 22.6 µM (inactive) | 11.2 µM (inactive) | 17.9 µM (inactive) | 18.2 µM (inactive)
11 | COc1ccc(N2C(=O)C3c4[nH]c5ccc(OCc6ccccc6)cc5c4C4CCC(c5ccccc5)CC4C3C2=O)cc1 (stereo not given) | 5.42 µM (inactive) | 4.2 µM (inactive) | 2.37 µM (inactive) | 6.78 µM (inactive) | 6.49 µM (inactive) | 6.95 µM (inactive) | 4.74 µM (inactive) | 8.07 µM (inactive) | 7.43 µM (inactive) | 11.1 µM (inactive) | 19.6 µM (inactive) | 2.67 µM (inactive) | 57.9 µM (inactive) | 8.91 µM (inactive) | 23.9 µM (inactive) | 6.85 µM (inactive) | 1.19 µM (inactive) | 4.98 µM (inactive) | 23.1 µM (inactive) | 19.2 µM (inactive)
12 | C[N+]1(C)CCOC(O)(c2ccccc2)C1 (stereo not given) | > 100 µM (inactive) | > 100 µM (inactive) | > 100 µM (inactive) | > 100 µM (inactive) | > 100 µM (inactive) | > 100 µM (inactive) | > 100 µM (inactive) | > 100 µM (inactive) | > 100 µM (inactive) | > 100 µM (inactive) | > 100 µM (inactive) | > 100 µM (inactive) | > 100 µM (inactive) | > 100 µM (inactive) | > 100 µM (inactive) | > 100 µM (inactive) | > 100 µM (inactive) | > 100 µM (inactive) | > 100 µM (inactive) | > 100 µM (inactive)
13 | O=C1Nc2ccccc2/C1=C/c1c(Cl)[nH]c2ccc(O)cc12 | 3.99 µM (inactive) | 1.4 µM (inactive) | 0.177 µM (active) | 1.36 µM (inactive) | 2.36 µM (inactive) | 0.681 µM (active) | 3.61 µM (inactive) | 1.78 µM (inactive) | 1.3 µM (inactive) | 0.719 µM (active) | 3.28 µM (inactive) | 3.27 µM (inactive) | 1.77 µM (inactive) | 2.93 µM (inactive) | 2.31 µM (inactive) | 3.77 µM (inactive) | 3.94 µM (inactive) | 1.71 µM (inactive) | 1.55 µM (inactive) | 1.08 µM (active)
14 | COc1ccc2nc3cc(Cl)ccc3c(NCCCCCC(=O)NC(COc3cnc4c(ccc5cccnc54)c3)COc3cnc4c(ccc5cccnc54)c3)c2c1 | 50.8 µM (inactive) | 1.99 µM (inactive) | 2.76 µM (inactive) | 77.1 µM (inactive) | 10.8 µM (inactive) | 21.4 µM (inactive) | 5.47 µM (inactive) | 11.3 µM (inactive) | 26.9 µM (inactive) | 3.94 µM (inactive) | 22.8 µM (inactive) | 11 µM (inactive) | 4.02 µM (inactive) | 31.4 µM (inactive) | 23.2 µM (inactive) | 12.8 µM (inactive) | 7.28 µM (inactive) | 21.9 µM (inactive) | 14.1 µM (inactive) | 4.73 µM (inactive)
